Experimental findings from US10301314B2, “Compounds and methods for the prevention and treatment of tumor metastasis and tumorigenesis” (The United States of America, as represented by the …, priority 2011, dated 2019) are described below.

Structures are written as SMILES.

The test system of test [1] is PC3M cell line that stably expresses GFP-PTB to mark PNCs. As to the kind of experiment: High content assay for PNC detection (reduction of PNC prevalence). In kind it is cell-based, human. The settings on record: Table 4, PC3M GFP-PTB cells, 16 hrs incubation; for IC50: Homo sapiens, PC-3M. The source says:
The quantitative output for this assay is the reduction of PNC prevalence. The PNC can be detected in living cells by the expression of a green fluorescent protein (GFP) tagged to the PNC localized protein, PTB. A PC3M cell line was used that stably expresses GFP-PTB to mark PNCs. This method eliminates the need for immunofluorescent staining.
The IN Cell Analyzer 1000 automated fluorescent imaging system (GE Healthcare, Piscataway, N.J.) was used for automated image acquisition. […] The instrument acquired images of each well in a 1536-well plate with a laser-based autofocus system. To score PNC prevalence in a high-content throughput, the Multi-Target Analysis (MTA) algorithm (GE Healthcare, Investigator v3.5) to identify individual cells and granules (PNCs) within these cells was used. The nucleus was segmented via a region growing method (50 μm^2 minimum area) with light shading and noise removal to allow “touching” nuclei to be separated. Granules in the nucleus (PNCs) were segmented using a multiscale top hat method, which measures granules of 1 to 2 μm in size and used a smart masking method to identify the boundaries of each segmented granule. The algorithm was optimized and validated using positive and negative controls (50 μM camptothecin and DMSO, respectively). In particular, the MTA algorithm allows for the identification of multiple subcellular compartments and organelles (or granules) within those compartments. In this instance, the algorithm's capability to identify objects within the same color channel that only differ in size or fluorescent intensity was utilized. Also, the algorithm allows for building complex hierarchical classification systems, using output measures within the algorithm to filter and define subpopulations. For this particular assay, PNC-positive cells were scored when 1 to 3 PNC granules were detected per nucleus. Cells that contained 0 granules were scored as PNC negative, and cells with >3 granules were assumed to be false positives (very few cells have more than 3 PNCs in one focus plane), and were also scored as PNC negative.

The test system of test [2] is PC3M reporter cell line stably expressing the PTB-GFP. As to the kind of experiment: ATP quantitation assay (ATPLite). In kind it is cell-based, human. To be noted: Table 4, PC3M cells, 24 hrs incubation; for IC50: Homo sapiens, PC-3M. As for the experimental part: This follow-up assay was conducted to measure the effect of compounds on cell health by measuring ATP levels (ATPLite™). ATPLite™ is an ATP monitoring system based on firefly (Photinus pyralis) luciferase. The level of ATP in a metabolically active cell is a general marker for its viability. ATP levels are often reduced during necrosis or apoptosis. In this assay, the luciferase enzyme catalyzes the conversion of the added substrate D-luciferin to oxyluciferin and light with ATP. Thus, the emitted light is proportional to the ATP concentration. For this assay, the highly metastatic PC3M reporter cell line stably expressing the PTB-GFP was provided by Professor Sui Huang of Northwestern University. The media and cell culture reagents were purchased from Invitrogen (Carlsbad, Calif.), ATPLite™ came from PerkinElmer.
In general terms: ATP-based viability assays read luminescence as a measure of living cells.

One may read the IC50 as the concentration at which inhibition is half-maximal. Consider `N=c1c2c(-c3ccccc3)c(-c3ccccc3)n(CCc3ccccc3)c2ncn1C[C@H]1CCCC[C@@H]1O` [Compound 62], for which the figures for the concentration for half-maximal inhibition (IC50) in test [1] and in test [2] were 0.148 µM and 24.1 µM, respectively.
With `COc1ccc(CCn2cnc3c(c(-c4ccccc4)cn3Cc3ccccc3)c2=N)cc1OC` [Compound 130], the “PNC IC50(μM)” value in test [1] was “inactive”. It took 24.1 µM to reach half-maximal inhibition in test [2] (IC50).
With `N=c1c2c(-c3ccc4c(c3)OCO4)c(-c3ccc4c(c3)OCO4)n(Cc3ccccc3)c2ncn1C1CCOCC1` [Compound 89], the IC50 in test [1] turned out to be 5.9 µM; in test [2], 24.1 µM.
Take `N=c1c2c(-c3ccccc3)c(-c3ccccc3)n(Cc3ccco3)c2ncn1CCCO` [Compound 11]: the concentration for half-maximal inhibition (IC50) in test [1] amounted to 3.97 µM; in test [2], 64.6 µM.
On to `COc1ccc(-c2c(-c3ccc(OC)cc3)n(Cc3ccccc3)c3ncn(CCCO)c(=N)c23)cc1` [Compound 135], for which, in test [1], the “PNC IC50(μM)” value is “inactive”. It took 30.4 µM to reach half-maximal inhibition in test [2] (IC50).
`CCOC(CCCn1cnc2c(c(-c3ccccc3)c(-c3ccccc3)n2Cc2ccc(OC)cc2)c1=N)OCC` [Compound 33]: the IC50 was found to be 2.96 µM in test [1] and 48.2 µM in test [2].
`COCCn1cnc2c(c(-c3ccccc3)c(-c3ccccc3)n2CCc2ccccc2)c1=N` [Compound 26]: the 50% inhibitory concentration (IC50) in test [1] was found to be 3.72 µM; in test [2], 60.7 µM.
Take `N=c1c2c(-c3ccccc3)cn(Cc3ccccc3)c2ncn1CCO` [Compound 140]: the “PNC IC50(μM)” value in test [1] is “inactive”. For the same molecule, the “ATP IC50(μM)” value in test [2] was “inactive”.
Turning to `CC[Si](CC)(CC)OCCCn1cnc2c(c(-c3ccccc3)cn2Cc2ccc(Br)cc2)c1=N` [Compound 116], in test [1], the “PNC IC50(μM)” value was “inactive”. Further, the “ATP IC50(μM)” value in test [2] was “inactive”.
Take `CO[C@H]1CC[C@H](n2cnc3c(c(-c4ccccc4)c(-c4ccccc4)n3Cc3ccccc3)c2=N)CC1` [Compound 56]: the values for the concentration for half-maximal inhibition (IC50) in test [1] and in test [2] were 0.009 µM and 19.2 µM, respectively.
In the case of `COc1ccc(Cn2c(-c3ccccc3)c(-c3ccccc3)c3c(=N)n(CCCCCO)cnc32)cc1` [Compound 14], the results for the IC50 in test [1] and in test [2] were 1.18 µM and 24.1 µM, respectively.
Consider `COc1ccc(Cn2c(-c3ccccc3)c(-c3ccccc3)c3c(=N)n([C@H]4CC[C@H](O)CC4)cnc32)cc1` [Compound 58], for which the IC50 came to 0.118 µM in test [1] and 24.1 µM in test [2].
Regarding `N=c1c2c(-c3ccccc3)cn(Cc3ccccc3)c2ncn1CCCO` [Compound 118], in test [1], the “PNC IC50(μM)” value is “inactive”. In test [2], this molecule showed a half-inhibitory concentration (IC50) of 121 µM.
Turning to `COc1ccc(Cn2c(-c3ccccc3)c(-c3ccccc3)c3c(=N)n(CCCCO)cnc32)cc1` [Compound 17], the IC50 in test [1] came to 1.18 µM; in test [2], 30.4 µM.
Turning to `CN(C)CCCn1cnc2c(c(-c3ccccc3)c(-c3ccccc3)n2CCc2ccccc2)c1=N` [Compound 22], the IC50 in test [1] turned out to be 7.43 µM; in test [2], 24.1 µM.
`N=c1c2c(-c3ccccc3)c(-c3ccccc3)n(Cc3ccccc3)c2ncn1CCCCO` [Compound 12]: the “PNC IC50(μM)” value in test [1] is “inactive”. Half-maximal inhibition in test [2] (IC50) required 24.1 µM.
For `N=c1c2c(-c3ccccc3)c(-c3ccccc3)n(CC3CC3)c2ncn1CC1CCOCC1` [Compound 134] the same measures were “inactive” and 60.7 µM.
For `N=c1c2c(-c3ccccc3)c(-c3ccccc3)n(CCc3ccccc3)c2ncn1CCO` [Compound 5], the IC50 in test [1] was found to be 0.187 µM; in test [2], 19.2 µM.
On to `COCCn1cnc2c(c(-c3ccccc3)c(-c3ccccc3)n2Cc2ccccc2)c1=N` [Compound 25], for which the concentration for half-maximal inhibition (IC50) in test [1] was determined as 1.87 µM; in test [2], 60.7 µM.
On to `CN(C)CCCn1cnc2c(c(-c3ccccc3)c(-c3ccccc3)n2Cc2ccccc2)c1=N` [Compound 21], for which the 50% inhibitory concentration (IC50) in test [1] is 7.43 µM; in test [2], 24.1 µM.
Regarding `N=c1c2c(-c3ccccc3)c(-c3ccccc3)n(Cc3ccccc3)c2ncn1CC1CCOC1` (centres unmarked) [Compound 85], the half-maximal inhibitory concentration (IC50) in test [1] was found to be 2.96 µM; in test [2], 24.1 µM.
In the case of `CO[C@H]1CC[C@H](n2cnc3c(c(-c4ccccc4)c(-c4ccccc4)n3CCc3ccccc3)c2=N)CC1` [Compound 65], the IC50 in test [1] is 0.235 µM; in test [2], 19.2 µM.
Regarding `COc1ccc(-c2c(-c3ccc(OC)cc3)n(Cc3ccccc3)c3ncn(CC4COC4)c(=N)c23)cc1` [Compound 129], the “PNC IC50(μM)” value in test [1] is “inactive”. Also, the “ATP IC50(μM)” value in test [2] is “inactive”.
Regarding `N=c1c2c(-c3ccccc3)cn(Cc3ccccc3)c2ncn1C1CCN(Cc2ccccc2)CC1` [Compound 82], the IC50 is 2.35 µM in test [1] and 30.4 µM in test [2].
`N=c1c2c(-c3ccccc3)c(-c3ccccc3)n(Cc3ccccc3)c2ncn1CC1COC1` [Compound 126]: the “PNC IC50(μM)” value in test [1] is “inactive”. In test [2], this molecule displayed an IC50 of 96.1 µM.
In the case of `COC(=O)C[C@H](C(=O)OC)n1cnc2c(c(-c3ccccc3)cn2Cc2ccc(Br)cc2)c1=N` [Compound 114], the “PNC IC50(μM)” value in test [1] was “inactive”. In test [2], the “ATP IC50(μM)” value is “inactive”.
For `N=c1c2c(-c3ccccc3)c(-c3ccccc3)n(Cc3ccccc3)c2ncn1CCC1CCC(O)CC1` (centres unmarked) [Compound 61], the IC50 was 0.118 µM in test [1] and 24.1 µM in test [2].
Regarding `N=c1c2c(-c3ccccc3)c(-c3ccccc3)n(CCc3ccccc3)c2ncn1CC1CCOC1` (centres unmarked) [Compound 87], the IC50 in test [1] was determined as 4.69 µM; in test [2], 60.7 µM.
For `N=c1c2c(-c3ccccc3)c(-c3ccccc3)n(Cc3ccc(OC(F)(F)F)cc3)c2ncn1[C@H]1CC[C@H](O)CC1` [Compound 70], the IC50 was 0.372 µM in test [1] and 24.1 µM in test [2].
As for `N=c1c2c(-c3ccccc3)cn(Cc3ccccc3)c2ncn1CCCN1CCN(c2ccccc2)CC1` [Compound 125], the “PNC IC50(μM)” value in test [1] is “inactive”. The same molecule showed an IC50 in test [2] of 30.4 µM.
`N=c1c2c(-c3ccccc3)c(-c3ccccc3)n(Cc3ccco3)c2ncn1Cc1ccco1` [Compound 43]: the concentration for half-maximal inhibition (IC50) in test [1] was determined as 9.96 µM; in test [2] it was 20.4 µM.
Turning to `N=c1c2c(-c3ccccc3)c(-c3ccccc3)n(Cc3ccccc3)c2ncn1CCN` [Compound 18], in test [1], the “PNC IC50(μM)” value was “inactive”. The same molecule yielded an IC50 in test [2] of 76.4 µM.
For `CO[C@H]1CC[C@H](n2cnc3c(c(-c4ccccc4)c(-c4ccccc4)n3Cc3ccc(OC(F)(F)F)cc3)c2=N)CC1` [Compound 69], the IC50 in test [1] came to 0.372 µM; in test [2] it was 19.2 µM.
As for `CCCCn1cnc2c(c(-c3ccccc3)c(-c3ccccc3)n2Cc2ccco2)c1=N` [Compound 34], the figures for the IC50 in test [1] and in test [2] were 1.25 µM and 20.4 µM, respectively.
For `N=c1c2c(-c3ccccc3)c(-c3ccccc3)n(CC3CCCCC3)c2ncn1[C@H]1CC[C@@H](O)CC1` [Compound 86] the same measures were 3.72 µM and 24.1 µM.
As to `N=c1c2c(-c3ccccc3)c(-c3ccccc3)n(Cc3ccc(OC(F)(F)F)cc3)c2ncn1C1CCOCC1` [Compound 75], the concentration for half-maximal inhibition (IC50) in test [1] turned out to be 0.935 µM; in test [2], 24.1 µM.
In turn, `N=c1c2c(-c3ccccc3)cn(Cc3ccccc3)c2ncn1C(CO)(CO)CO` [Compound 99] returned an IC50 in test [1] of 14.8 µM. Further, in test [2], the “ATP IC50(μM)” value is “inactive”.
As to `CC(C)CCn1cnc2c(c(-c3ccccc3)c(-c3ccccc3)n2Cc2ccco2)c1=N` [Compound 35], the “PNC IC50(μM)” value in test [1] is reported as “Inactive”. Also, half-maximal inhibition in test [2] (IC50) required 19.9 µM.
Turning to `N=c1c2c(-c3ccccc3)c(-c3ccccc3)n(CCc3ccccc3)c2ncn1CCCCO` [Compound 13], the IC50 in test [1] worked out at 0.235 µM; in test [2] it was 15.2 µM.
For the molecule `C#CCn1cnc2c(c(-c3ccccc3)cn2Cc2ccccc2)c1=N` [Compound 124], the “PNC IC50(μM)” value in test [1] was “inactive”. Further, the “ATP IC50(μM)” value in test [2] is “inactive”.
For `CN(C)CCn1cnc2c(c(-c3ccccc3)c(-c3ccccc3)n2Cc2ccccc2)c1=N` [Compound 19], the IC50 in test [1] came out at 0.935 µM; in test [2], 24.1 µM.
Regarding `OCCNc1ncnc2c1c(-c1ccccc1)c(-c1ccccc1)n2Cc1ccco1` [Compound 137], in test [1], the “PNC IC50(μM)” value is “inactive”. Moreover, the “ATP IC50(μM)” value in test [2] was “inactive”.
`N=c1c2c(-c3ccccc3)c(-c3ccccc3)n(Cc3ccccc3)c2ncn1C[C@@H]1CCCC[C@H]1O` [Compound 73]: the IC50 in test [1] was found to be 0.59 µM; in test [2], 24.1 µM.
